Experimental data as given in paper PMC3749181, “Rapid Identification of Antifungal Compounds against Exserohilum rostratum Using High Throughput Drug Repurposing Screens” (PLoS ONE, 2013).
Where two headings read alike, the source gives them in different places.

Columns and labels:
[1] = system: E. rostratum hyphal fragments; experiment: hyphal fragment fungicidal ATP content assay (PBS, 1536-well); type: cell-based, Exserohilum rostratum; conditions: for Emax / IC50: Exserohilum rostratum; for Emax / Hyphae % Max. Resp. / Hyphae % M. Res.: 46 µM Amphotericin B = 100%; for IC50: read-out: Hyphae IC50
Description: (§1) Conidia and hyphae of E. rostratum were obtained as described by Richard et al., with the following modifications. Briefly, conidia were harvested from Potato Dextrose Agar (PDA) cultured media with 0.05% Tween 80, and the conidial suspension was filtered using a Cell Strainer (100 µm, BD Falcon REF 352340). After centrifugation at 700g for 10 min, the suspension was decanted and conidia were resuspended at 1×10^5 per ml in RPMI and counted in a hemocytometer. Hyphae were harvested from yeast extract peptone dextrose (YPD) culture media with 0.05% Tween 80. Hyphal fragments were sized by vortexing 15 sec twice with 0.4 mm glassbeads, and the hyphae suspension was filtered by cheese cloth twice. […] To normalize concentrations of hyphal fragments for batch to batch consistency, carbohydrate analysis was performed by a phenol-sulfuric acid method as previously described. The final stock concentration of hyphae was adjusted to 1.0 (OD490) per 100 µl.
(§2) The ATPLite assay kit, consisting of luciferase/luciferin and detergent, was used to quantitate cellular ATP levels as a marker for cell viability (Table 1). For assay development, hyphal fragments or conidia in PBS were plated in a seeding density of 3,750, 7,500 and 15,000 cellular particles/well with a final volume of 5 µl/well using the Multidrop-Combi dispenser in white 1536-well plates. Conidia or hyphae fragments were incubated for 24 h at 37°C in a 5% CO2 humidified atmosphere. ATPLite detection reagents were added at 4 µl/well. The assay plates were incubated at room temperature for 15 minutes before reading luminescence intensity on a ViewLux plate reader (Perkin Elmer, Waltham, MA). Conidia suspended in RPMI medium were inoculated at concentrations of 62.5, 125 and 250 conidia/well with a final volume of 5 µl/well in white 1536-well plates. The conidia assay was developed and optimized in the same way as the hyphal assay.
(§3) The LOPAC library (Sigma-Aldrich) has been extensively used for HTS assay validations, [18]. The NIH Chemical Genomics Center Pharmaceutical (NPC) collection was constructed in-house through a combined effort of compound purchasing and custom synthesis and recently expanded to 4096 compounds. […] 2.5 µl/well PBS was dispensed into 1536-well plates using a Multidrop-Combi dispenser. Compound in DMSO solution was transferred in a volume of 23 nl/well using a NX-TR pintool station (WAKO Scientific Solutions, San Diego, CA). This additional PBS step for compound addition was designed to prevent the potential fungal contamination of compound libraries. The hyphal fragments in PBS were then added at 2.5 µl/well for a final seeding density of 15,000 hyphal fragments/well using the Multidrop-Combi dispenser. The final compound concentration was 46 µM in the primary screen. The assay plates were incubated for 24 h at 30°C before the detection of cellular viability with the ATP content assay. Screen of conidia was performed in a similar way except that PBS was replaced with RPMI medium and conidia were plated for a final seeding density of 250 conidia/well.
(§4) The primary screen data and curve fitting were analyzed using software developed internally at the NIH Chemical Genomics Center (NCGC). Total signals for cellular viability (100% cellular viability) were calculated from the wells with DMSO solvent and the complete cell killing (0% cellular viability) was calculated from 46 µM amphotericin B treated wells. […] All values were expressed as the mean +/− SD (n≥3).

SH-SY5Y cells = experiment: SH-SY5Y cytotoxicity counter-screen (ATP content assay); type: cell-based, Human; conditions: for SH-SY5Y % Max. Resp.: Table 2, SH-SY5Y, inact. = no significant activity at 46 µM; for SH-SY5Y % M. Res.: Inact. = no significant activity at 46 µM
Description: Human neuroblastoma SH-SY5Y cell line (Catalog No. CRL-2266) was purchased from ATCC (Manassas, VA). SH-SY5Y cell line was cultured in 175-cm^2 tissue culture flasks (Costar, Cambridge, MA) with 30 ml of growth medium at 37°C in a 5% CO2 humidified atmosphere. Growth medium was made with Dulbecco's Modified Eagle Medium: Nutrient Mixture F-12 with 10% fetal bovine serum (FBS). Growth medium was replaced every other day and cells were passed at 75% confluence.
as §2
Two small known compound libraries including the LOPAC (1280 compounds) and approved drugs (4096 compounds) were screened in parallel using the above optimized assays for hyphae and conidia in 1536-well plates (Fig. 4). […] A mammalian SH-SY5Y cell line was used in parallel as a counter-screen with the same ATP content assay kit to assess the specificity of these compounds for E. rostratum.

E. rostratum conidia = experiment: conidia growth inhibition ATP content assay (RPMI, 1536-well); type: cell-based, Exserohilum rostratum; conditions: for IC50: read-out: Conidia IC50; for Emax / Conidia % Max. Resp. / Conidia % M. Res.: 46 µM Amphotericin B = 100%; for Conidia IC50: Inact. = no significant activity at the highest compound concentration (46 µM)
Description: as §1, §2, §3, §4

[2] = Table 2, inact. = no significant activity in the primary screen, read-out: Hyphae % Max. Resp.
[3] = Table 2, 24 h, inact. = no significant activity in the primary screen
[4] = Exserohilum rostratum, 24 h, Table 2, 24 h, inact. = no significant activity at the highest compound concentration (46 µM)
[5] = Exserohilum rostratum, Table 2, inact. = no significant activity at 46 µM, read-out: Conidia % Max. Resp.
[6] = Table 2, inact. = no significant activity in the primary screen
[7] = Table 2, inact. = no significant activity at 46 µM
[8] = Table 2, 24 h, inact. = no significant activity at the highest compound concentration (46 µM)
[9] = Table S1, Inact. = no significant activity in the primary screen
[10] = Table S1, 46 µM Amphotericin B = 100%
[11] = Table S1, Inact. = no significant activity at the highest compound concentration (46 µM)
[12] = Table S1, Inact. = no significant activity at 46 µM
[13] = Table S1, Inact. = no significant activity in the primary screen, read-out: Hyphae % M. Res.
[14] = Exserohilum rostratum, Table S1, Inact. = no significant activity at 46 µM, read-out: Conidia % M. Res.

Compound: N=C(N)c1ccc(OCCCCCOc2ccc(C(=N)N)cc2)cc1 [Pentamidine isethionate]
- Emax [1, 2]: 82%
- IC50 [1, 3]: 0.468 µM
- SH-SY5Y % Max. Resp. (SH-SY5Y cells; 46 µM Amphotericin B = 100%): inact.
- SH-SY5Y % Max. Resp. (SH-SY5Y cells): inact.
- IC50 (E. rostratum conidia; [4]): 1.11 µM
- Emax (E. rostratum conidia; [5]): 108%

Compound: CC(=O)[O][Hg][c]1ccccc1 [Phenylmercuric acetate]
- Hyphae % Max. Resp. [1, 6]: inact.
- Hyphae IC50 [1, 3]: inact.
- SH-SY5Y % Max. Resp. (SH-SY5Y cells; 46 µM Amphotericin B = 100%): 96%
- SH-SY5Y % Max. Resp. (SH-SY5Y cells): 0.417%
- Conidia % Max. Resp. (E. rostratum conidia; [7]): 99%
- IC50 (E. rostratum conidia; [8]): 0.146 µM

Compound: O=[N+]([O-])c1c(Cl)cccc1-c1c[nH]cc1Cl [Pyrrolnitrin]
- Emax [1, 2]: 80%
- IC50 [1, 3]: 5.59 µM
- SH-SY5Y % Max. Resp. (SH-SY5Y cells; 46 µM Amphotericin B = 100%): inact.
- SH-SY5Y % Max. Resp. (SH-SY5Y cells): inact.
- IC50 (E. rostratum conidia; [4]): 0.409 µM
- Emax (E. rostratum conidia; [5]): 101%

Compound: Cc1cc(O)c2c(c1)O[C@@]1(C)CC[C@H]3C(C)(C)CCC[C@]34CO[C@@H]2[C@H]41 [Siccanin]
- Hyphae % M. Res. [1, 9]: Inact.
- Hyphae IC50 [1, 9]: Inact.
- SH-SY5Y % M. Res. (SH-SY5Y cells; [10]): Inact.
- SH-SY5Y IC50 (SH-SY5Y cells; [11]): Inact.
- Conidia % M. Res. (E. rostratum conidia; [12]): Inact.
- Conidia IC50 (E. rostratum conidia; Table S1): Inact.

Compound: CN(C/C=C/C#CC(C)(C)C)Cc1cccc2ccccc12 [Terbinafine]
- Emax [1, 13]: 64%
- IC50 [1, 9]: 34 µM
- SH-SY5Y % M. Res. (SH-SY5Y cells; [10]): Inact.
- SH-SY5Y IC50 (SH-SY5Y cells; [11]): Inact.
- Conidia % M. Res. (E. rostratum conidia; [12]): Inact.
- Conidia IC50 (E. rostratum conidia; Table S1): Inact.

Compound: CC(C)N1CCN(c2ccc(OCC3COC(Cn4cncn4)(c4ccc(Cl)cc4Cl)O3)cc2)CC1 (stereo not drawn) [Terconazole]
- Emax [1, 2]: 100%
- IC50 [1, 3]: 6.12 µM
- Emax [1, 13]: 100%
- SH-SY5Y % Max. Resp. (SH-SY5Y cells; 46 µM Amphotericin B = 100%): inact.
- SH-SY5Y % Max. Resp. (SH-SY5Y cells): inact.
- SH-SY5Y % M. Res. (SH-SY5Y cells; [10]): Inact.
- SH-SY5Y IC50 (SH-SY5Y cells; [11]): Inact.
- IC50 (E. rostratum conidia; [4]): 9.06 µM
- Emax (E. rostratum conidia; [5]): 101%
- Emax (E. rostratum conidia; [14]): 101%

Compound: CCCCCCCCCCCCCC[N+](C)(C)C [Tetradonium bromide]
- Hyphae % Max. Resp. [1, 6]: inact.
- Hyphae IC50 [1, 3]: inact.
- SH-SY5Y % Max. Resp. (SH-SY5Y cells; 46 µM Amphotericin B = 100%): inact.
- SH-SY5Y % Max. Resp. (SH-SY5Y cells): inact.
- IC50 (E. rostratum conidia; [4]): 2.44 µM
- Emax (E. rostratum conidia; [5]): 103%

Compound: CN(C)C(=S)SC(=S)N(C)C [Tetramethylthiuram monosulfide]
- Emax [1, 13]: 59%
- IC50 [1, 9]: 67.9 µM
- SH-SY5Y IC50 (SH-SY5Y cells): Inact.
- SH-SY5Y % M. Res. (SH-SY5Y cells; [10]): Inact.
- IC50 (E. rostratum conidia; Exserohilum rostratum): 3.4 µM
- Emax (E. rostratum conidia; [14]): 23%

Compound: C[CH2][Hg][S]c1ccccc1C(=O)[O-].[Na+] [Thimerosal]
- Hyphae % Max. Resp. [1, 6]: inact.
- Hyphae IC50 [1, 3]: inact.
- SH-SY5Y % Max. Resp. (SH-SY5Y cells; 46 µM Amphotericin B = 100%): 96%
- SH-SY5Y % Max. Resp. (SH-SY5Y cells): 2.63%
- Conidia % Max. Resp. (E. rostratum conidia; [7]): 102%
- IC50 (E. rostratum conidia; [8]): 0.139 µM

Compound: Clc1ccc(C(Cn2ccnc2)OCc2ccsc2Cl)c(Cl)c1 (stereo not drawn) [Tioconazole]
- Emax [1, 2]: 100%
- IC50 [1, 3]: 5.97 µM
- Emax [1, 13]: 100%
- SH-SY5Y % Max. Resp. (SH-SY5Y cells; 46 µM Amphotericin B = 100%): inact.
- SH-SY5Y % Max. Resp. (SH-SY5Y cells): inact.
- SH-SY5Y % M. Res. (SH-SY5Y cells; [10]): Inact.
- SH-SY5Y IC50 (SH-SY5Y cells; [11]): Inact.
- IC50 (E. rostratum conidia; [4]): 8.55 µM
- Emax (E. rostratum conidia; [5]): 101%
- Emax (E. rostratum conidia; [14]): 101%

Compound: Cc1cccc(N(C)C(=S)Oc2ccc3c(c2)CCC3)c1 [Tolindate]
- Hyphae % M. Res. [1, 9]: Inact.
- Hyphae IC50 [1, 9]: Inact.
- SH-SY5Y % M. Res. (SH-SY5Y cells; [10]): Inact.
- SH-SY5Y IC50 (SH-SY5Y cells; [11]): Inact.
- Conidia % M. Res. (E. rostratum conidia; [12]): Inact.
- Conidia IC50 (E. rostratum conidia; Table S1): Inact.

Compound: O=C(Nc1ccc(Br)cc1)c1cc(Br)cc(Br)c1O [Tribromosalan]
- Hyphae % Max. Resp. [1, 6]: inact.
- Hyphae IC50 [1, 3]: inact.
- SH-SY5Y % Max. Resp. (SH-SY5Y cells; 46 µM Amphotericin B = 100%): inact.
- SH-SY5Y % Max. Resp. (SH-SY5Y cells): inact.
- Conidia % Max. Resp. (E. rostratum conidia; [7]): 99%
- IC50 (E. rostratum conidia; [8]): 1.93 µM

Compound: CC1(C)CCC(=Cc2ccc(Cl)cc2)C1(O)Cn1cncn1 (stereo not drawn) [Triticonazole]
- Emax [1, 2]: 74%
- IC50 [1, 3]: 5.82 µM
- Emax [1, 13]: 74%
- SH-SY5Y % Max. Resp. (SH-SY5Y cells; 46 µM Amphotericin B = 100%): inact.
- SH-SY5Y % Max. Resp. (SH-SY5Y cells): inact.
- SH-SY5Y % M. Res. (SH-SY5Y cells; [10]): Inact.
- SH-SY5Y IC50 (SH-SY5Y cells; [11]): Inact.
- IC50 (E. rostratum conidia; [4]): 6.95 µM
- Emax (E. rostratum conidia; [5]): 100%
- Emax (E. rostratum conidia; [14]): 100%

Compound: CC(C)(C)c1cc(C=C(C#N)C#N)cc(C(C)(C)C)c1O [Tyrphostin A9]
- Hyphae % Max. Resp. [1, 6]: inact.
- Hyphae IC50 [1, 3]: inact.
- SH-SY5Y % Max. Resp. (SH-SY5Y cells; 46 µM Amphotericin B = 100%): 61%
- SH-SY5Y % Max. Resp. (SH-SY5Y cells): 18.6%
- IC50 (E. rostratum conidia; [4]): 1.98 µM
- Emax (E. rostratum conidia; [5]): 100%

Compound: CC(C)(C)c1cc(/C=C(\C#N)C(N)=S)cc(C(C)(C)C)c1O [Tyrphostin AG 879]
- Hyphae % Max. Resp. [1, 6]: inact.
- Hyphae IC50 [1, 3]: inact.
- SH-SY5Y % Max. Resp. (SH-SY5Y cells; 46 µM Amphotericin B = 100%): inact.
- SH-SY5Y % Max. Resp. (SH-SY5Y cells): inact.
- IC50 (E. rostratum conidia; [4]): 6.16 µM
- Emax (E. rostratum conidia; [5]): 92%

Compound: Bleomycin sulfate
- Hyphae % Max. Resp. [1, 6]: inact.
- Hyphae IC50 [1, 3]: inact.
- SH-SY5Y % Max. Resp. (SH-SY5Y cells; 46 µM Amphotericin B = 100%): inact.
- SH-SY5Y % Max. Resp. (SH-SY5Y cells): inact.
- Conidia % Max. Resp. (E. rostratum conidia; [7]): 98%
- IC50 (E. rostratum conidia): 1.24 µM
